Experimental data from patent publication US20130244999A1, “Substituted Heterocyclic Compounds” (Incyte Corporation, priority 2008, published 2013).

What follows are compounds tested against T1, histamine H4 receptor (Homo sapiens, UniProt Q9H3N8) (assay: Inhibition of histamine H4 receptor (Table A1; H4 membrane binding assay)). Conditions: not given.
T1 construct: expressed in transfected cells; host or cells: HEK293SFM cells (membrane preparation)
Method in brief: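 Membranes came from recombinant HEK293SFM cells expressing human H4, homogenized in 50 mM Tris-HCl pH 7.5 with protease inhibitors. Nonspecific binding was set with 1000× unlabeled ligand. Bound radioligand was separated on PEI-treated GF/B filters and counted by liquid scintillation.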

inhibition at 1 µM [%]	Structure (SMILES)
72	CC1Cc2ccc(-c3cnn(CC4(C#N)CC4)c3)cc2CN1c1cc(N2CCN(C)CC2)nc(N)n1 (single isomer, unassigned) [Example 97B, 1-[(4-{2-[2-amino-6-(4-methylpiperazin-1-yl)pyrimidin-4-yl]-3-methyl-1,2,3,4-tetrahydroisoquinolin-7-yl}-1H-pyrazol-1-yl)methyl]cyclopropanecarbonitrile]
70	CCNC(=O)c1cccc(-c2ccc3c(c2)CN(c2cc(N4CCN(C)CC4)nc(N)n2)C(C)C3)n1 (single isomer, unassigned) [Example 158, 6-{2-[2-Amino-6-(4-methylpiperazin-1-yl)pyrimidin-4-yl]-3-methyl-1,2,3,4-tetrahydroisoquinolin-7-yl}-N-ethylpyridine-2-carboxamide]

Same assay, conditions: histamine H4 receptor; "> a" = exceeds experiment limit

IC50 [nM]	Structure (SMILES)
24	CC1Cc2ccc(-c3cnn(C4CCS(=O)(=O)C4)c3)cc2CN1c1cc(N2CCN(C)CC2)nc(N)n1 (single isomer, unassigned) [Example 98A, 4-[7-[1-(1,1-dioxidotetrahydro-3-thienyl)-1H-pyrazol-4-yl]-3-methyl-3,4-dihydroisoquinolin-2(1H)-yl]-6-(4-methylpiperazin-1-yl)pyrimidin-2-amine]
83	CC1Cc2ccc(-c3cnn(CC4CCCO4)c3)cc2CN1c1cc(N2CCN(C)CC2)nc(N)n1 (single isomer, unassigned) [Example 99A, 4-(4-Methylpiperazin-1-yl)-6-[3-methyl-7-[1-(tetrahydrofuran-2-ylmethyl)-1H-pyrazol-4-yl]-3,4-dihydroisoquinolin-2(1H)-yl]pyrimidin-2-amine]
172	CC1Cc2ccc(-c3cnn(CC4CCCO4)c3)cc2CN1c1cc(N2CCN(C)CC2)nc(N)n1 (single isomer, unassigned) [Example 99B, 4-(4-Methylpiperazin-1-yl)-6-[3-methyl-7-[1-(tetrahydrofuran-2-ylmethyl)-1H-pyrazol-4-yl]-3,4-dihydroisoquinolin-2(1H)-yl]pyrimidin-2-amine]
20	CC1Cc2ccc(-c3cnn(CCF)c3)cc2CN1c1cc(N2CCN(C)CC2)nc(N)n1 (single isomer, unassigned) [Example 100, 4-[7-[1-(2-fluoroethyl)-1H-pyrazol-4-yl]-3-methyl-3,4-dihydroisoquinolin-2(1H)-yl]-6-(4-methylpiperazin-1-yl)pyrimidin-2-amine]
34	CC(C#N)Cn1cc(-c2ccc3c(c2)CN(c2cc(N4CCN(C)CC4)nc(N)n2)C(C)C3)cn1 (single isomer, unassigned) [Example 101, 3-(4-{2-[2-Amino-6-(4-methylpiperazin-1-yl)pyrimidin-4-yl]-3-methyl-1,2,3,4-tetrahydroisoquinolin-7-yl}-1H-pyrazol-1-yl)-2-methylpropanenitrile]
42	CC1Cc2ccc(-c3cnn(CC4CC4)c3)cc2CN1c1cc(N2CCN(C)CC2)nc(N)n1 (single isomer, unassigned) [Example 102, 4-[7-[1-(Cyclopropylmethyl)-1H-pyrazol-4-yl]-3-methyl-3,4-dihydroisoquinolin-2(1H)-yl]-6-(4-methylpiperazin-1-yl)pyrimidin-2-amine]
24	CC1Cc2ccc(-c3cnn(C(C)CC#N)c3)cc2CN1c1cc(N2CCN(C)CC2)nc(N)n1 (single isomer, unassigned) [Example 103, 3-(4-{2-[2-Amino-6-(4-methylpiperazin-1-yl)pyrimidin-4-yl]-3-methyl-1,2,3,4-tetrahydroisoquinolin-7-yl}-1H-pyrazol-1-yl)butanenitrile]
45	CC1Cc2ccc(-c3cnn(CCN4CCOCC4)c3)cc2CN1c1cc(N2CCN(C)CC2)nc(N)n1 (single isomer, unassigned) [Example 104, 4-[3-Methyl-7-[1-(2-morpholin-4-ylethyl)-1H-pyrazol-4-yl]-3,4-dihydroisoquinolin-2(1H)-yl]-6-(4-methylpiperazin-1-yl)pyrimidin-2-amine]
53	CC1Cc2ccc(-c3cnn(C(C)C)c3)cc2CN1c1cc(N2CCN(C)CC2)nc(N)n1 (single isomer, unassigned) [Example 105, 4-[7-(1-Isopropyl-1H-pyrazol-4-yl)-3-methyl-3,4-dihydroisoquinolin-2(1H)-yl]-6-(4-methylpiperazin-1-yl)pyrimidin-2-amine]
63	CC1Cc2ccc(-c3cnn(CC4CCC4)c3)cc2CN1c1cc(N2CCN(C)CC2)nc(N)n1 (single isomer, unassigned) [Example 106, 4-[7-[1-(cyclobutylmethyl)-1H-pyrazol-4-yl]-3-methyl-3,4-dihydroisoquinolin-2(1H)-yl]-6-(4-methylpiperazin-1-yl)pyrimidin-2-amine]
42	CCn1cc(-c2ccc3c(c2)CN(c2cc(N4CCN(C)CC4)nc(N)n2)C(C)C3)cn1 (single isomer, unassigned) [Example 107, 4-[7-(1-Ethyl-1H-pyrazol-4-yl)-3-methyl-3,4-dihydroisoquinolin-2(1H)-yl]-6-(4-methylpiperazin-1-yl)pyrimidin-2-amine]
46	CC1Cc2ccc(-c3cnn(C4CCOC4)c3)cc2CN1c1cc(N2CCN(C)CC2)nc(N)n1 (single isomer, unassigned) [Example 108, 4-(4-Methylpiperazin-1-yl)-6-[3-methyl-7-[1-(tetrahydrofuran-3-yl)-1H-pyrazol-4-yl]-3,4-dihydroisoquinolin-2(1H)-yl]pyrimidin-2-amine]
100	CC1Cc2ccc(-c3cnn(CC4CCCC4)c3)cc2CN1c1cc(N2CCN(C)CC2)nc(N)n1 (single isomer, unassigned) [Example 109, 4-[7-[1-(Cyclopentylmethyl)-1H-pyrazol-4-yl]-3-methyl-3,4-dihydroisoquinolin-2(1H)-yl]-6-(4-methylpiperazin-1-yl)pyrimidin-2-amine]
35	CC1Cc2ccc(-c3cnn(CCO)c3)cc2CN1c1cc(N2CCN(C)CC2)nc(N)n1 (single isomer, unassigned) [Example 110, 2-(4-{2-[2-Amino-6-(4-methylpiperazin-1-yl)pyrimidin-4-yl]-3-methyl-1,2,3,4-tetrahydroisoquinolin-7-yl}-1H-pyrazol-1-yl)ethanol]
22	CC1Cc2ccc(-c3cnn(C4CCN(CCO)CC4)c3)cc2CN1c1cc(N2CCN(C)CC2)nc(N)n1 (single isomer, unassigned) [Example 111, 2-[4-(4-{2-[2-Amino-6-(4-methylpiperazin-1-yl)pyrimidin-4-yl]-3-methyl-1,2,3,4-tetrahydroisoquinolin-7-yl}-1H-pyrazol-1-yl)piperidin-1-yl]ethanol]
40	COCCn1cc(-c2ccc3c(c2)CN(c2cc(N4CCN(C)CC4)nc(N)n2)C(C)C3)cn1 (single isomer, unassigned) [Example 112, 4-[7-[1-(2-Methoxyethyl)-1H-pyrazol-4-yl]-3-methyl-3,4-dihydroisoquinolin-2(1H)-yl]-6-(4-methylpiperazin-1-yl)pyrimidin-2-amine]
72	CC1Cc2ccc(-c3cnn(CC(N)=O)c3)cc2CN1c1cc(N2CCN(C)CC2)nc(N)n1 (single isomer, unassigned) [Example 113, 2-(4-{2-[2-Amino-6-(4-methylpiperazin-1-yl)pyrimidin-4-yl]-3-methyl-1,2,3,4-tetrahydroisoquinolin-7-yl}-1H-pyrazol-1-yl)acetamide]
34	CC1Cc2ccc(-c3cnn(CCC(N)=O)c3)cc2CN1c1cc(N2CCN(C)CC2)nc(N)n1 (single isomer, unassigned) [Example 114, 3-(4-{2-[2-Amino-6-(4-methylpiperazin-1-yl)pyrimidin-4-yl]-3-methyl-1,2,3,4-tetrahydroisoquinolin-7-yl}-1H-pyrazol-1-yl)propanamide]
40	CC1Cc2ccc(-c3cnn(C4CCCC4)c3)cc2CN1c1cc(N2CCN(C)CC2)nc(N)n1 (single isomer, unassigned) [Example 115, 4-[7-(1-Cyclopentyl-1H-pyrazol-4-yl)-3-methyl-3,4-dihydroisoquinolin-2(1H)-yl]-6-(4-methylpiperazin-1-yl)pyrimidin-2-amine]
85	CC1Cc2ccc(-c3ccc(C(=O)N4CC[C@H](F)C4)nc3)cc2CN1c1cc(N2CCN(C)CC2)nc(N)n1 (single isomer, unassigned) [Example 154A]
355	CC1Cc2ccc(-c3ccc(C(=O)N4CC[C@H](F)C4)nc3)cc2CN1c1cc(N2CCN(C)CC2)nc(N)n1 (single isomer, unassigned) [Example 154B]
15.3	CC1Cc2ccc(-c3ccn(Cc4ccccn4)n3)cc2CN1c1cc(N2CCN(C)CC2)nc(N)n1 (single isomer, unassigned) [Example 155, 4-(4-Methylpiperazin-1-yl)-6-[3-methyl-7-[1-(pyridin-2-ylmethyl)-1H-pyrazol-3-yl]-3,4-dihydroisoquinolin-2(1H)-yl]pyrimidin-2-amine]
8.7	CC1Cc2ccc(-c3ccn(Cc4cccnc4)n3)cc2CN1c1cc(N2CCN(C)CC2)nc(N)n1 (single isomer, unassigned) [Example 156, 4-(4-Methylpiperazin-1-yl)-6-[3-methyl-7-[1-(pyridin-3-ylmethyl)-1H-pyrazol-3-yl]-3,4-dihydroisoquinolin-2(1H)-yl]pyrimidin-2-amine]
8.7	CC1Cc2ccc(-c3ccn(Cc4ccncc4)n3)cc2CN1c1cc(N2CCN(C)CC2)nc(N)n1 (single isomer, unassigned) [Example 157, 4-(4-Methylpiperazin-1-yl)-6-[3-methyl-7-[1-(pyridin-4-ylmethyl)-1H-pyrazol-3-yl]-3,4-dihydroisoquinolin-2(1H)-yl]pyrimidin-2-amine]
91	CC1Cc2ccc(-c3cnn(C)c3)cc2CN1c1cc(N2CCCC(N)C2)nc(N)n1 (stereo in doubt) [Example 119, 4-[(3S)-3-Aminopiperidin-1-yl]-6-[3-methyl-7-(1-methyl-1H-pyrazol-4-yl)-3,4-dihydroisoquinolin-2(1H)-yl]pyrimidin-2-amine]
